{
  "source": "ChEMBL document CHEMBL3792363",
  "about": "“2,6-Bis(benzimidazol-2-yl)pyridine as a potent transmembrane anion transporter” (Bioorg Med Chem Lett, 2016)",
  "key": {"[1]": {"assay": "Ionophoric activity assessed as induction of chloride influx into EYPC based liposomal membranes at 15% measured within 5 mins by lucigenin based fluorescence assay", "conditions": "artificial membrane; call rule not given here"}, "[2]": {"assay": "Ionophoric activity assessed as induction of pH discharge across EYPC based liposomal membranes using chloride salt of Li+ ions at 3% by pyranine based fluorescence assay", "conditions": "artificial membrane"}, "[3]": {"assay": "Ionophoric activity assessed as induction of pH discharge across EYPC based liposomal membranes using chloride salt of Na+ ions at 3% by pyranine based fluorescence assay", "conditions": "artificial membrane"}, "[4]": {"assay": "Ionophoric activity assessed as induction of chloride influx into EYPC based liposomal membranes at 5% measured within 5 mins by lucigenin based fluorescence assay", "conditions": "artificial membrane"}, "[5]": {"assay": "Binding affinity to iodide anion assessed as association constant by spectrometric titration method relative to Me2bimpy"}, "[6]": {"assay": "Ionophoric activity assessed as induction of chloride influx into EYPC based liposomal membranes at 1 to 5% in presence of intravesicular NaNO3 by lucigenin based fluorescence assay", "conditions": "artificial membrane"}, "[7]": {"assay": "Binding affinity to bromide anion assessed as association constant by spectrometric titration method relative to Me2bimpy"}, "[8]": {"assay": "Binding affinity to chloride anion assessed as association constant by spectrometric titration method"}, "[9]": {"assay": "Ionophoric activity assessed as induction of pH discharge across EYPC based liposomal membranes using chloride salt of K+ ions at 3% by pyranine based fluorescence assay", "conditions": "artificial membrane"}, "[10]": {"assay": "Binding affinity to nitrate anion assessed as association constant by spectrometric titration method"}, "[11]": {"assay": "Ionophoric activity assessed as induction of pH discharge across POPC based liposomal membranes at 1 to 5% by pyranine based fluorescence assay", "conditions": "artificial membrane"}, "[12]": {"assay": "Ionophoric activity assessed as induction of pH discharge across EYPC based liposomal membranes at 1 to 5% by pyranine based fluorescence assay", "conditions": "artificial membrane"}, "[13]": {"assay": "Binding affinity to bromide anion assessed as association constant by spectrometric titration method"}, "[14]": {"assay": "Ionophoric activity assessed as induction of pH discharge across EYPC based liposomal membranes using chloride salt of Cs+ ions at 3% by pyranine based fluorescence assay", "conditions": "artificial membrane"}, "[15]": {"assay": "Binding affinity to iodide anion assessed as association constant by spectrometric titration method"}, "[16]": {"assay": "Ionophoric activity assessed as induction of pH discharge across POPC/cholesterol (30%) based liposomal membranes at 1 to 5% by pyranine based fluorescence assay", "conditions": "artificial membrane"}, "[17]": {"assay": "Binding affinity to chloride anion assessed as association constant by spectrometric titration method relative to Me2bimpy"}, "[18]": {"assay": "Ionophoric activity assessed as induction of pH discharge across EYPC based liposomal membranes using chloride salt of Rb+ ions at 3% by pyranine based fluorescence assay", "conditions": "artificial membrane"}, "[19]": {"assay": "Ionophoric activity assessed as induction of chloride influx into EYPC based liposomal membranes at 1 to 5% in presence of intravesicular Na2SO4 by lucigenin based fluorescence assay", "conditions": "artificial membrane"}, "[20]": {"assay": "Binding affinity to nitrate anion assessed as association constant by spectrometric titration method relative to Me2bimpy"}, "[21]": {"assay": "Ionophoric activity assessed as induction of chloride influx into EYPC based liposomal membranes at 1 to 5% in presence of intravesicular and extravesicular by lucigenin based fluorescence assay", "conditions": "artificial membrane"}, "[22]": {"assay": "Ionophoric activity assessed as induction of pH discharge across EYPC based liposomal membranes at 5% by pyranine based fluorescence assay", "conditions": "artificial membrane"}},
  "data": [
    {"smiles": "O=C(NCc1ccccc1)[C@@H](Cc1ccccc1)n1cc[n+](Cc2cccc(C[n+]3ccn([C@H](Cc4ccccc4)C(=O)NCc4ccccc4)c3)c2)c1.O=S(=O)([N-]S(=O)(=O)C(F)(F)F)C(F)(F)F.O=S(=O)([N-]S(=O)(=O)C(F)(F)F)C(F)(F)F", "values": [
      {"measurement": "Activity", "setting": "[1]", "result": 35, "unit": "%"}
    ]},
    {"smiles": "CCCCCCCCCCCCNC(=O)[C@@H](C(C)C)n1cc[n+](Cc2cccc(C[n+]3ccn([C@@H](C(=O)NCCCCCCCCCCCC)C(C)C)c3)c2)c1.O=S(=O)([N-]S(=O)(=O)C(F)(F)F)C(F)(F)F.O=S(=O)([N-]S(=O)(=O)C(F)(F)F)C(F)(F)F", "values": [
      {"measurement": "Activity", "setting": "[1]", "result": 35, "unit": "%"}
    ]},
    {"smiles": "CC(C)[C@H](C(=O)NCc1ccccc1)n1cc[n+](Cc2cccc(C[n+]3ccn([C@@H](C(=O)NCc4ccccc4)C(C)C)c3)c2)c1.O=S(=O)([N-]S(=O)(=O)C(F)(F)F)C(F)(F)F.O=S(=O)([N-]S(=O)(=O)C(F)(F)F)C(F)(F)F", "values": [
      {"measurement": "Activity", "setting": "[1]", "result": 35, "unit": "%"}
    ]},
    {"smiles": "c1cc(-c2nc3ccccc3[nH]2)nc(-c2nc3ccccc3[nH]2)c1", "values": [
      {"measurement": "Activity", "setting": "[2]", "result": "Active"},
      {"measurement": "Activity", "setting": "[3]", "result": "Active"},
      {"measurement": "Activity", "setting": "[4]", "result": 35, "unit": "%"},
      {"measurement": "fold change (FC)", "setting": "[5]", "result": 2.2},
      {"measurement": "Activity", "setting": "[6]", "result": "Active"},
      {"measurement": "fold change (FC)", "setting": "[7]", "result": 6},
      {"measurement": "Ka", "setting": "[8]", "result": 8.71, "unit": "×10³ /M"},
      {"measurement": "Activity", "setting": "[9]", "result": "Active"},
      {"measurement": "Ka", "setting": "[10]", "result": 4.9, "unit": "×10³ /M"},
      {"measurement": "Activity", "setting": "[11]", "result": "Not Active"},
      {"measurement": "Activity", "setting": "[12]", "result": "Active"},
      {"measurement": "Ka", "setting": "[13]", "result": 3.04, "unit": "×10³ /M"},
      {"measurement": "Activity", "setting": "[14]", "result": "Active"},
      {"measurement": "Ka", "setting": "[15]", "result": 1.57, "unit": "×10³ /M"},
      {"measurement": "Activity", "setting": "[16]", "result": "Not Active"},
      {"measurement": "fold change (FC)", "setting": "[17]", "result": 22},
      {"measurement": "Activity", "setting": "[18]", "result": "Active"},
      {"measurement": "Activity", "setting": "[19]", "result": "Active"},
      {"measurement": "fold change (FC)", "setting": "[20]", "result": 6.8},
      {"measurement": "Activity", "setting": "[21]", "result": "Active"}
    ]},
    {"smiles": "Cn1c(-c2cccc(-c3nc4ccccc4n3C)n2)nc2ccccc21", "values": [
      {"measurement": "Activity", "setting": "[6]", "result": "Not Active"},
      {"measurement": "Ka", "setting": "[8]", "result": 4, "unit": "×10² /M"},
      {"measurement": "Ka", "setting": "[10]", "result": 7.23, "unit": "×10² /M"},
      {"measurement": "Activity", "setting": "[12]", "result": "Not Active"},
      {"measurement": "Ka", "setting": "[13]", "result": 5.03, "unit": "×10² /M"},
      {"measurement": "Ka", "setting": "[15]", "result": 7.07, "unit": "×10² /M"}
    ]},
    {"smiles": "c1cc(-c2nc3ccccc3[nH]2)cc(-c2nc3ccccc3[nH]2)c1", "values": [
      {"measurement": "Activity", "setting": "[22]", "result": "Active"}
    ]}
  ]
}
